Key:
Plasmodium falciparum [1] = test: In vitro inhibitory concentration against chloroquine-resistant Plasmodium falciparum V1/S; type: functional, organism-based
Plasmodium falciparum [2] = test: […] against Plasmodium falciparum strains K39 and V1/S; type: functional
Plasmodium falciparum [3] = test: In vitro inhibitory concentration against chloroquine-sensitive Plasmodium falciparum K39; type: functional, organism-based
[4] = In vitro toxicity against B82 fibroblast cells; type: cell-based; details: mouse, read-out: LD50 (the source's name)
Plasmodium falciparum [5] = test: In vitro inhibition against chloroquine-resistant Plasmodium falciparum V1/S; Range 0.1-0.4 uM; type: functional, organism-based
Plasmodium falciparum [6] = test: In vitro inhibition against chloroquine-sensitive Plasmodium falciparum K39; Range 0.1-0.4 uM; type: functional, organism-based

| SMILES | IC50 (Plasmodium falciparum [1]) | Ratio (Plasmodium falciparum [2]) | IC50 (Plasmodium falciparum [3]) | CC50 [4] | IC50 (Plasmodium falciparum [5]) | IC50 (Plasmodium falciparum [6]) |
| --- | --- | --- | --- | --- | --- | --- |
| COc1cc2c(ccc3c4cc(OC)c(OC)cc4c[n+](C)c23)cc1O.CS(=O)(=O)[O-] | 1800 nM | 0.8 | 2300 nM | – | – | – |
| CCOc1cc2ccc3c4cc(OC)c(OC)cc4c[n+](C)c3c2cc1OC.CS(=O)(=O)[O-] | 740 nM | 0.9 | 800 nM | – | – | – |
| COc1cc2c[n+](C)c3c4cc(OC)c(OC)cc4c4occc4c3c2cc1OC.CS(=O)(=O)[O-] | 110 nM | 11.3 | 9 nM | – | – | – |
| CCOc1cc2c3cc(OC)c(OC)cc3c[n+](C)c2c2cc(OC)c(O)cc12.CS(=O)(=O)[O-] | 120 nM | 1 | 120 nM | – | – | – |
| CC[n+]1cc2cc(OC)c(OC)cc2c2ccc3cc(OC)c(OC)cc3c21.[I-] | 120 nM | 1.3 | 90 nM | – | – | – |
| CCOc1cc2c3cc(OC)c(OC)cc3c[n+](CC)c2c2cc(OC)c(OC)cc12.[I-] | 50 nM | 1.4 | 40 nM | 3.2 µg/mL | – | – |
| COc1cc2c[n+](C)c3c4cc(OC)c(OC)cc4ccc3c2cc1OC.CS(=O)(=O)[O-] | 300 nM | 4.2 | 70 nM | – | – | – |
| COc1cc2c[n+](C)c3c4cc(OC)c(OC)cc4c(OCC4OCC(Br)([N+](=O)[O-])CO4)cc3c2cc1OC.CS(=O)(=O)[O-] (stereo not drawn) | 1840 nM | 1.9 | 1000 nM | – | – | – |
| COc1cc2ccc3c4cc(OC)c(SC)cc4c[n+](C)c3c2cc1OC.CS(=O)(=O)[O-] | 900 nM | 4.7 | 190 nM | – | – | – |
| CCOc1cc2c3cc(OC)c(OC)cc3c[n+](C)c2c2cc(OC)c(OC)cc12.CS(=O)(=O)[O-] | 260 nM | 1 | 260 nM | – | – | – |
| COc1cc2c[n+](C)c3c4cc5c(cc4ccc3c2cc1OC)OCO5 [NITIDINE CHLORIDE] | – | – | – | – | 400 nM | 400 nM |

From ChEMBL document CHEMBL1143522, “Antimalarial benzo[c]phenanthridines” (Bioorg Med Chem Lett, 2005)
